Laboratory results as given in patent US8349804B2, “Bone graft and scaffolding materials immobilized with type I collagen binding peptides” (Seoul National University Industry Foundation, priority 2006, dated 2013).

Assays:
[1] = test system: Human-osteocarcoma cells (KCLB No. 21543); experiment: Test of cell adhesion on peptide-immobilized bone graft material; assay type: cell-based; conditions: phalloidin staining, confocal laser scanning microscope
Protocol: […] The bone graft materials with the cultured human-osteocarcoma cell were fixed with 2% glutaraldehyde solution. The fixed bone graft materials were treated with 1% triton X-100 and then added with a fluorescent-labeled phalloidin solution, thus staining the attached cytoplasm.

[2] = Test of calcification (calcein staining, confocal microscopy); assay type: cell-based, human; conditions: cultured 14 days in medium for forming hard tissue; compared with group without peptides
Protocol: The bone graft materials prepared in Examples 2 was added to a medium for forming a hard tissue containing calcein (fluorescent marker of calcium), and human mesenchymally derived stem cells (C2Cl2: ATCC CRL-1772) were cultured for 14 days. The cultured osteoblasts werefixed with 2% glutaraldehyde solution and treated with 1% triton X-100 and then added with a fluorescent-labeled phalloidin solution, thus staining the fixed cytoplasm.

type I collagen = experiment: Affinity of peptide to type I collagen by Biacore X; assay type: binding; conditions: type I collagen bound to CM5 chip, peptide dissolved to be 4 μmol, ranking among SEQ ID NO: 1-3
Description: The synthesized peptide's affinity to type I collagen was examined using Biacore X (Biacore Co., Sweden). After the type I collagen was bound to CM5 chip, the amount of peptides binding with collagen was quantitated while flowing the prepared peptide dissolved to be 4 μmol into micro-channels of Biacore X (FIG. 1).

ERK = experiment: Western blot of phosphorylated ERK (pERK); assay type: cell-based, human; conditions: C2C12 cells treated with peptides for 30 min; compared with non-treated cells (NT)
Protocol: In order to examine the expression of differentiation marker protein in osteoblasts cultured on the surface of the bone graft material on which peptides added with cysteine at each N-terminal end of amino acid sequences of SEQ ID NOs: 1, 2 and 3, prepared in example 2 according to the present invention were immobilized, the peptides were exposed to human mesenchymally derived stem cells (C2C12) for 30 min, and collected to measure the amount of ERK protein, a marker proteins involved in intracellular signal transfer, by Western blot.
The human mesenchymally derived stem cells were transplanted to 60 mm of petridish, treated with peptides for 30 min. Whole intracellular protein was extracted and quantitated by Bradford method. 40[…] of protein was electrophoresed on acrylamide gel and transferred to nitrocellulose membrane, and ERK, intracellular signal transmission protein within cell was reacted with the antibody of phosphorylated ERK (pERK), followed by reacting with the second antibody labeled with a marker. The membrane was developed to observe the protein bands and measure densities thereof (FIG. 4).

type I collagen, sequence (P02452 162-1218 limits assumed): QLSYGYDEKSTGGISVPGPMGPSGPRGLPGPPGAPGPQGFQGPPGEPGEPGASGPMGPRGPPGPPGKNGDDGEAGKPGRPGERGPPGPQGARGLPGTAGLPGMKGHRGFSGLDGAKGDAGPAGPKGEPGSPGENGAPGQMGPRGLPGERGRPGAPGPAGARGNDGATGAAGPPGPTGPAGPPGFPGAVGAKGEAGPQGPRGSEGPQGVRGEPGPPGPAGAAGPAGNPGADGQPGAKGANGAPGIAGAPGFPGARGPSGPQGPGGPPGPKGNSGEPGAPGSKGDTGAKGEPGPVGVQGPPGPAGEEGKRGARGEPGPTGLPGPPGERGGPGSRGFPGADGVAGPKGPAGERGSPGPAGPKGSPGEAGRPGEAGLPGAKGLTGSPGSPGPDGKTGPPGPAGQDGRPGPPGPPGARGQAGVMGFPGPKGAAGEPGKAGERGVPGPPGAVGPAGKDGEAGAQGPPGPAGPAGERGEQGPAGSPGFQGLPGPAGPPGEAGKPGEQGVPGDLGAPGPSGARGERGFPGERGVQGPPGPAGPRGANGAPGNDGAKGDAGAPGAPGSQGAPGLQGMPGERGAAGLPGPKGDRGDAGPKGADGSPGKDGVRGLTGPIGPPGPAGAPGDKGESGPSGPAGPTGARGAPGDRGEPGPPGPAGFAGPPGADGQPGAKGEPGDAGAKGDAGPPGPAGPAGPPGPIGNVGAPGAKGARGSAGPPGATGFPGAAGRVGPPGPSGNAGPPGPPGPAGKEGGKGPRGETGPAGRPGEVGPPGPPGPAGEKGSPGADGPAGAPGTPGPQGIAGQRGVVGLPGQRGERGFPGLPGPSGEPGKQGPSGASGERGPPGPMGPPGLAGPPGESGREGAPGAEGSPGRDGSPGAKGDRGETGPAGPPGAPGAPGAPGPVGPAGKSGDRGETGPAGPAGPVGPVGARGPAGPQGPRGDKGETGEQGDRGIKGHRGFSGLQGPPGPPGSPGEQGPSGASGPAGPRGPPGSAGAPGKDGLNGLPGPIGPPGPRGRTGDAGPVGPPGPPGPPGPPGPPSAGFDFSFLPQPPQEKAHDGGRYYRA
type I collagen, sequence (P08123 80-1119 limits assumed, further chain): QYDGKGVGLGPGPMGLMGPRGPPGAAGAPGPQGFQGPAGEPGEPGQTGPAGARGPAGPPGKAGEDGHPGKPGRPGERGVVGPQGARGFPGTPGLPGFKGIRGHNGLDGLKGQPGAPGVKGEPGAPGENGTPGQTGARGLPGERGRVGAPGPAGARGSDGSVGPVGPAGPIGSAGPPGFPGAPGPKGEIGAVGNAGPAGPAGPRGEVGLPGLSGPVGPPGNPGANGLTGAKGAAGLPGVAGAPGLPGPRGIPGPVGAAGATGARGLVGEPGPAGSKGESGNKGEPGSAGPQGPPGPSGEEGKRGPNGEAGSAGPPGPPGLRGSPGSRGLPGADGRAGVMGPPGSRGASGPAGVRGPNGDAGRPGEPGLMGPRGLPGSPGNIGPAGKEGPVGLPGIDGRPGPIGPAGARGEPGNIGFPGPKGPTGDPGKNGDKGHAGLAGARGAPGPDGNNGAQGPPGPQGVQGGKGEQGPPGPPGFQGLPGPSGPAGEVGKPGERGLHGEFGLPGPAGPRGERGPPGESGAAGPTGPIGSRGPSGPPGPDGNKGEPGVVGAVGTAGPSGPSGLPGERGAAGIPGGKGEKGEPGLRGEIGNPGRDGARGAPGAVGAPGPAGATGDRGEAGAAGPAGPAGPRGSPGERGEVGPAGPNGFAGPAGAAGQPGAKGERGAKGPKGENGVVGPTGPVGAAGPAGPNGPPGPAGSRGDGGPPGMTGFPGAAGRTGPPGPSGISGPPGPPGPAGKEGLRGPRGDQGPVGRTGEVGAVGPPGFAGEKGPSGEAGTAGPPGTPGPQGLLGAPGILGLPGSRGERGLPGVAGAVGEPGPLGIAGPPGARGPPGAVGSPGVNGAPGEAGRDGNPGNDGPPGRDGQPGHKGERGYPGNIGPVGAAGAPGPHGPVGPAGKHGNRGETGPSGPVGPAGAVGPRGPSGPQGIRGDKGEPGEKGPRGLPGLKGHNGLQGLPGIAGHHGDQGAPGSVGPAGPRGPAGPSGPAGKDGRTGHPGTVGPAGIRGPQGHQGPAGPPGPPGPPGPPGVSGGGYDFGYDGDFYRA

Substance | cell adhesion pattern on coated surface [1] | calcium adhesion (calcein fluorescence), calcification of cells [2] | affinity to type I collagen (amount of peptide binding with collagen) (type I collagen) | expression of phosphorylated ERK (pERK) (ERK)
Bovine serum albumin [BSA, reference compound] | spherical and unstable adhesion aspect of the cells | – | – | –
KMFHVSNAQYPGA (listed as Oryctolagus cuniculus) [SEQ ID NO: 2] | stable adhesion of the cells | much more fluorescence | lowest affinity | significantly increased
YRLKRSKS (listed as Oryctolagus cuniculus) [SEQ ID NO: 1] | stable adhesion of the cells | much more fluorescence | – | significantly increased
YRLKRSKSKMFHVSNAQYPGA (listed as Oryctolagus cuniculus) [SEQ ID NO: 3] | stable adhesion of the cells | much more fluorescence | highest affinity | significantly increased
